The values that follow come from publication PMC10682911 (Saudi Pharmaceutical Journal : SPJ, 2023).

Values joined by “and” are separate entries in the source; they are usually repeats but may differ in a detail not shown here. Equal values may be shown once.

The target of one test is hCA IX (Homo sapiens, UniProt Q16790). The experiment in a line: biochemical. The conditions noted are these: for Selectivity analysis hCA II/IX / Selectivity analysis hCA I/IX: SI; for Selectivity analysis hCA II/IX: hCA IX over hCA II (ratio of Ki); for Ki: Ki hCA IX, stopped-flow technique, mean from 3 different assays; for Selectivity analysis hCA I/IX: hCA IX over hCA I (ratio of Ki).

A further test has as its target hCA XII (Homo sapiens, UniProt O43570). The experiment in a line: hCA XII inhibition, stopped-flow technique. The test is classed as biochemical. The conditions noted are these: for Selectivity analysis hCA I/XII / Selectivity analysis hCA II/XII: SI; for Selectivity analysis hCA I/XII: hCA XII over hCA I (ratio of Ki); for Selectivity analysis hCA II/XII: hCA XII over hCA II (ratio of Ki).

The target of another test is hCA II (Homo sapiens, UniProt P00918). Put plainly: hCA II inhibition, stopped-flow technique. The test is classed as biochemical.
The next test addresses hCA I (Homo sapiens, UniProt P00915). Put plainly: hCA I inhibition, stopped-flow technique. In kind it is biochemical.

hCA XII, sequence (O43570 25-354): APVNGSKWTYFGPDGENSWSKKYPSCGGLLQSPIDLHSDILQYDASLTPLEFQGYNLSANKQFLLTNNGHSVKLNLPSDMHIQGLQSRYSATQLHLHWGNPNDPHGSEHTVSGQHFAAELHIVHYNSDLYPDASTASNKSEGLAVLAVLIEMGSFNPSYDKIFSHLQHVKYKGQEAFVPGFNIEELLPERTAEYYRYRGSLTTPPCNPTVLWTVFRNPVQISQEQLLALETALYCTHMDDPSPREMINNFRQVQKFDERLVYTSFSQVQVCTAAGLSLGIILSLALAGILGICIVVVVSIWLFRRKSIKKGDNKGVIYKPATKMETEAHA
hCA I, sequence (P00915 whole entry): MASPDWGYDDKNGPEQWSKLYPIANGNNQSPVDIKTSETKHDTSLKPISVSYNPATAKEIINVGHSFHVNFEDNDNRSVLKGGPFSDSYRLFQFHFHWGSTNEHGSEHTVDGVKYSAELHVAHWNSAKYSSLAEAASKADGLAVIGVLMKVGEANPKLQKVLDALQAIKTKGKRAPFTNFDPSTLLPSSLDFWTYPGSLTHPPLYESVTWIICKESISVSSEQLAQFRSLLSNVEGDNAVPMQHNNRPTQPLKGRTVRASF

Consider `NNC(=O)CSc1nc2ccccc2c(=O)n1CCc1ccc(S(N)(=O)=O)cc1` [Compound 3, 4-(2-(2-((2-hydrazineyl-2-oxoethyl)thio)-4-oxoquinazolin-3(4H)-yl)ethyl)benzenesulfonamide], for which, on hCA IX, the “Selectivity analysis hCA II/IX” value came out at 0.31.
The term Ki denotes the dissociation constant of the complex between target and ligand, obtained from inhibition or displacement. Read a low Ki as higher affinity. In the case of `NS(=O)(=O)c1ccc(CCn2c(SCC(=O)NN=Cc3cccc(O)c3)nc3ccccc3c2=O)cc1` [Compound 6, 4-(2-(2-((2-(2-(3-Hydroxybenzylidene)hydrazineyl)-2-oxoethyl)thio)-4-oxoquinazolin-3(4H)-yl)ethyl)benzenesulfonamide], at hCA XII, the Ki worked out at 34.7 nM, the “Selectivity analysis hCA I/XII” value is listed as 27.58 and the “Selectivity analysis hCA II/XII” value was 2.60. For the same compound, the affinity at hCA II, expressed as Ki, was 90.1 nM. At hCA I, this compound gave a Ki of 957 nM. On hCA IX, the Ki was determined as 38.9 nM, the “Selectivity analysis hCA I/IX” value is 24.60 and the “Selectivity analysis hCA II/IX” value is recorded as 2.31.
For `NS(=O)(=O)c1ccc(CCn2c(SCC(=O)NN=Cc3ccc(O)cc3)nc3ccccc3c2=O)cc1` [Compound 7, 4-(2-(2-((2-(2-(4-Hydroxybenzylidene)hydrazineyl)-2-oxoethyl)thio)-4-oxoquinazolin-3(4H)-yl)ethyl)benzenesulfonamide], at hCA XII, the affinity corresponds to a Ki of 19.5 nM, the “Selectivity analysis hCA I/XII” value was 34.08 and the “Selectivity analysis hCA II/XII” value came out at 3.92. At hCA II, this compound returned a Ki of 76.4 nM. Moreover, at hCA I, the Ki was found to be 665 nM. Besides, on hCA IX, the Ki is 62.6 nM and 62.2 nM; the “Selectivity analysis hCA I/IX” value amounted to 10.68; the “Selectivity analysis hCA II/IX” value was found to be 1.23.
On to `COc1ccc(C=NNC(=O)CSc2nc3ccccc3c(=O)n2CCc2ccc(S(N)(=O)=O)cc2)cc1` [Compound 10, 4-(2-(2-((2-(2-(4-Methoxybenzylidene)hydrazineyl)-2-oxoethyl)thio)-4-oxoquinazolin-3(4H)-yl)ethyl)benzenesulfonamide], for which, on hCA XII, the affinity corresponds to a Ki of 46.5 nM, the “Selectivity analysis hCA I/XII” value came out at 12.00 and the “Selectivity analysis hCA II/XII” value is listed as 1.79. Further, the affinity on hCA II, expressed as Ki, was 83.4 nM. Moreover, the affinity at hCA I, expressed as Ki, was 558 nM. Further, at hCA IX, the inhibition constant (Ki) was found to be 49.7 nM, the “Selectivity analysis hCA I/IX” value was 11.23 and the “Selectivity analysis hCA II/IX” value turned out to be 1.68.
Regarding `COc1ccc(C=NNC(=O)CSc2nc3ccccc3c(=O)n2CCc2ccc(S(N)(=O)=O)cc2)c(OC)c1` [Compound 11, 4-(2-(2-((2-(2-(2,4-Dimethoxybenzylidene)hydrazineyl)-2-oxoethyl)thio)-4-oxoquinazolin-3(4H)-yl)ethyl)benzenesulfonamide], the inhibitory constant (Ki) at hCA XII was determined as 74.3 nM; on hCA II, 50.9 nM; at hCA I, 2300 nM; at hCA IX, 52.7 nM. The “Selectivity analysis hCA I/XII” value on hCA XII was found to be 30.928. At hCA XII, the “Selectivity analysis hCA II/XII” value was found to be 0.68. For the same compound, the “Selectivity analysis hCA I/IX” value on hCA IX is on record as 43.60.
With `COc1ccc(C=NNC(=O)CSc2nc3ccccc3c(=O)n2CCc2ccc(S(N)(=O)=O)cc2)cc1OC` [Compound 12, 4-(2-(2-((2-(2-(3,4-Dimethoxybenzylidene)hydrazineyl)-2-oxoethyl)thio)-4-oxoquinazolin-3(4H)-yl)ethyl)benzenesulfonamide], on hCA XII, the Ki was determined as 69.2 nM, the “Selectivity analysis hCA I/XII” value worked out at 15.289 and the “Selectivity analysis hCA II/XII” value is on record as 3.75. The Ki at hCA II amounted to 260 nM. This compound also came in with a Ki at hCA I of 1060 nM. For the same compound, at hCA IX, the affinity corresponds to a Ki of 88.3 nM, the “Selectivity analysis hCA I/IX” value was 11.98 and the “Selectivity analysis hCA II/IX” value is listed as 2.94.
Consider `COc1cc(C=NNC(=O)CSc2nc3ccccc3c(=O)n2CCc2ccc(S(N)(=O)=O)cc2)cc(OC)c1OC` [Compound 13, 4-(2-(4-Oxo-2-((2-Oxo-2-(2-(3,4,5-trimethoxybenzylidene)hydrazineyl)ethyl)thio)quinazolin-3(4H)-yl)ethyl)benzenesulfonamide], for which, at hCA XII, the affinity corresponds to a Ki of 91.5 nM, the “Selectivity analysis hCA I/XII” value was determined as 21.66 and the “Selectivity analysis hCA II/XII” value was 7.27. Also, the affinity on hCA II corresponds to a Ki of 665 nM. Also, on hCA I, the affinity, expressed as Ki, was 1980 nM. Also, on hCA IX, the affinity corresponds to a Ki of 124 nM, the “Selectivity analysis hCA I/IX” value came to 16.05 and the “Selectivity analysis hCA II/IX” value came out at 5.38.
As to `COc1cc(C=NNC(=O)CSc2nc3ccccc3c(=O)n2CCc2ccc(S(N)(=O)=O)cc2)ccc1O` [Compound 14, 4-(2-(2-((2-(2-(4-Hydroxy-3-methoxybenzylidene)hydrazineyl)-2-oxoethyl)thio)-4-oxoquinazolin-3(4H)-yl)ethyl)benzenesulfonamide], at hCA XII, the Ki turned out to be 14.2 nM, the “Selectivity analysis hCA I/XII” value came out at 60.35 and the “Selectivity analysis hCA II/XII” value is 2.09. For the same compound, on hCA II, the Ki was determined as 29.7 nM. On hCA I, the affinity, expressed as Ki, was 857 nM. Also, on hCA IX, the inhibition constant Ki is 60.1 nM, the “Selectivity analysis hCA I/IX” value is reported as 14.25 and the “Selectivity analysis hCA II/IX” value is 0.50.
Consider `NS(=O)(=O)c1ccc(CCn2c(SCC(=O)NN=Cc3ccc4c(c3)OCO4)nc3ccccc3c2=O)cc1` [Compound 15, 4-(2-(2-((2-(2-(Benzo[d][1,3]dioxol-5-ylmethylene)hydrazineyl)-2-oxoethyl)thio)-4-oxoquinazolin-3(4H)-yl)ethyl)benzenesulfonamide], for which, at hCA XII, the affinity, expressed as Ki, was 52.8 nM; the “Selectivity analysis hCA I/XII” value came to 13.11; the “Selectivity analysis hCA II/XII” value stood at 1.91. Also, the affinity on hCA II, expressed as Ki, was 101 nM. The compound further showed an inhibition constant (Ki) at hCA I of 692 nM. Moreover, on hCA IX, the inhibition constant (Ki) was found to be 16.5 nM, the “Selectivity analysis hCA I/IX” value amounted to 41.95 and the “Selectivity analysis hCA II/IX” value came to 6.10.
For the compound `COc1ccc(C(C)=NNC(=O)CSc2nc3ccccc3c(=O)n2CCc2ccc(S(N)(=O)=O)cc2)cc1OC` [Compound 19, 4-(2-(2-((2-(2-(1-(3,4-Dimethoxyphenyl)ethylidene)hydrazineyl)-2-oxoethyl)thio)-4-oxoquinazolin-3(4H)-yl)ethyl)benzenesulfonamide], on hCA XII, the Ki is 68.1 nM, the “Selectivity analysis hCA I/XII” value turned out to be 12.108 and the “Selectivity analysis hCA II/XII” value is listed as 2.77. The same compound gave an inhibition constant Ki on hCA II of 189 nM. Besides, the Ki at hCA I stood at 825 nM. At hCA IX, the Ki stood at 40.3 nM, the “Selectivity analysis hCA I/IX” value turned out to be 20.46 and the “Selectivity analysis hCA II/IX” value is listed as 4.70.
Regarding `COc1ccc(OC)c(C(C)=NNC(=O)CSc2nc3ccccc3c(=O)n2CCc2ccc(S(N)(=O)=O)cc2)c1` [Compound 20, 4-(2-(2-((2-(2-(1-(2,5-Dimethoxyphenyl)ethylidene)hydrazineyl)-2-oxoethyl)thio)-4-oxoquinazolin-3(4H)-yl)ethyl)benzenesulfonamide], at hCA XII, the Ki came out at 79.9 nM, the “Selectivity analysis hCA I/XII” value was 21.21 and the “Selectivity analysis hCA II/XII” value worked out at 2.86. This compound also yielded a Ki on hCA II of 228 nM. Further, the inhibition constant (Ki) on hCA I worked out at 1690 nM. At hCA IX, the Ki was found to be 29.4 nM, the “Selectivity analysis hCA I/IX” value turned out to be 57.65 and the “Selectivity analysis hCA II/IX” value was 7.77.
As for `COc1cc(OC)cc(C(C)=NNC(=O)CSc2nc3ccccc3c(=O)n2CCc2ccc(S(N)(=O)=O)cc2)c1` [Compound 21, 4-(2-(2-((2-(2-(1-(3,5-Dimethoxyphenyl)ethylidene)hydrazineyl)-2-oxoethyl)thio)-4-oxoquinazolin-3(4H)-yl)ethyl)benzenesulfonamide], on hCA XII, the Ki turned out to be 58 nM, the “Selectivity analysis hCA I/XII” value was 19.95 and the “Selectivity analysis hCA II/XII” value worked out at 2.25. The compound further yielded a Ki at hCA II of 131 nM. Besides, on hCA I, the Ki is 1160 nM. Moreover, on hCA IX, the Ki came out at 52.7 nM, the “Selectivity analysis hCA I/IX” value worked out at 21.95 and the “Selectivity analysis hCA II/IX” value is 2.48.
For the compound `COc1cc(C(C)=NNC(=O)CSc2nc3ccccc3c(=O)n2CCc2ccc(S(N)(=O)=O)cc2)cc(OC)c1OC` [Compound 22, 4-(2-(4-Oxo-2-((2-oxo-2-(2-(1-(3,4,5-trimethoxyphenyl)ethylidene)hydrazineyl)ethyl)thio)quinazolin-3(4H)-yl)ethyl)benzenesulfonamide], at hCA XII, the affinity corresponds to a Ki of 85.2 nM, the “Selectivity analysis hCA I/XII” value came out at 27.09 and the “Selectivity analysis hCA II/XII” value was determined as 3.90. The same compound displayed an inhibitory constant (Ki) at hCA II of 333 nM. For the same compound, at hCA I, the inhibitory constant (Ki) came out at 2310 nM. For the same compound, at hCA IX, the Ki amounted to 184 nM, the “Selectivity analysis hCA I/IX” value came out at 12.52 and the “Selectivity analysis hCA II/IX” value came to 1.80.
